Reference: ChEMBL document CHEMBL5154917 (J Med Chem, 2022)
The source made the active and inactive calls. The calls are words filed in the database; no cut-off is given here.

Assays:
HT-29 = experiment: Antiproliferative activity against human HT-29 cells assessed as cell growth inhibition incubated for 72 hrs by CCK-8 assay; details: HT-29, 72 h
MKN-1 [1] = experiment: Antiproliferative activity against human MKN-1 cells assessed as cell growth inhibition incubated for 72 hrs by CCK-8 assay; details: MKN-1, 72 h
[2] = Solubility of compound in organic solvents; type: physicochemical
[3] = target: T1, Serine/threonine-protein kinase RIO3 (Homo sapiens) (UniProt O14730); experiment: Binding affinity to RIOK3 in human MKN-1 cells assessed as negative shift in melting temperature at 5 uM incubated for 3 hrs followed by heat treatment at 52 to 62 degC for 3 mins by CETSA; type: cell-based; details: time 183.0 min
T1 sequence (whole entry): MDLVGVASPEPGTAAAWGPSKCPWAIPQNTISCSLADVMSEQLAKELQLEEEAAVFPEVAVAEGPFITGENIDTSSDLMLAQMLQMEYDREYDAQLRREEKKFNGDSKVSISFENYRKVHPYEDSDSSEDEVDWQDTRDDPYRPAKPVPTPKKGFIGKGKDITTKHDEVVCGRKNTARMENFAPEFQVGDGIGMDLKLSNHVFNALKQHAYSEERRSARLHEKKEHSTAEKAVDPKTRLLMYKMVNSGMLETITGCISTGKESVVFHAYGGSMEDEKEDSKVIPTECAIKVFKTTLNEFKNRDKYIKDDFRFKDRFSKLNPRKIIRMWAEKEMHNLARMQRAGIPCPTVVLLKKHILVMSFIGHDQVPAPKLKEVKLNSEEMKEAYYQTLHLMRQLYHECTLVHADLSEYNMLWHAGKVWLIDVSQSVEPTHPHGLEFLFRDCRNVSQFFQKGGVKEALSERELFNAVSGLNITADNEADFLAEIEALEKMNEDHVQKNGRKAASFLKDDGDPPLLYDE

[4] = Aqueous solubility of the compound; type: physicochemical; details: buffer
Homo sapiens [5] = species on record: Homo sapiens; experiment: Binding affinity to human partial length FLT3 ITD F691L mutant expressed in mammalian expression system assessed as residual activity at 1 uM by KINOMEscan assay relative to control
[6] = Toxicity in CB17-SCID mouse xenografted with human MKN-1 cells assessed as side effects at 25 mg/kg, ip qd for 18 consecutive days; type: organism-based; details: in vivo, 432 h, time 18 day
[7] = Toxicity in CB17-SCID mouse xenografted with human MKN-1 cells assessed as mortality at 25 mg/kg, ip qd for 18 consecutive days; type: organism-based; details: in vivo, 432 h, time 18 day
[8] = Oral bioavailability in Sprague-Dawley rat; type: ADME, organism-based; details: in vivo
[9] = target: T2, Serine/threonine-protein kinase RIO1 (Homo sapiens) (UniProt Q9BRS2); experiment: Binding affinity to RIOK1 in human MKN-1 cells assessed as negative shift in melting temperature at 5 uM incubated for 3 hrs followed by heat treatment at 52 to 62 degC for 3 mins by CETSA; type: cell-based; details: time 183.0 min
T2 sequence (whole entry): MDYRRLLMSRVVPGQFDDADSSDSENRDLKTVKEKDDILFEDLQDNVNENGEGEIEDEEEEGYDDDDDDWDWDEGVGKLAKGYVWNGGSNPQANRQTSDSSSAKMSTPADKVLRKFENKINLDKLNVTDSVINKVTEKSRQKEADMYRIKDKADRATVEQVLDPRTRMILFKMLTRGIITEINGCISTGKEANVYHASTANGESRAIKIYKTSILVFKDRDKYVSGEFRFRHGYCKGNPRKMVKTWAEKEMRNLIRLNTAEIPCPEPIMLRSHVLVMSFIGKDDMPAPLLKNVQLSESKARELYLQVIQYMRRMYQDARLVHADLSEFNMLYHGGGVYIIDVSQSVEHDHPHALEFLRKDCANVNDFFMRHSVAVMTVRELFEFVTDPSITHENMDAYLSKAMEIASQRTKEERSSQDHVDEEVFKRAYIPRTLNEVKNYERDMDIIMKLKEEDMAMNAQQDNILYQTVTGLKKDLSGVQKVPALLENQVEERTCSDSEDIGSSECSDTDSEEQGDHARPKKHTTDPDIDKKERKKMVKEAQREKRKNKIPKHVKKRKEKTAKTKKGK

Homo sapiens [10] = species on record: Homo sapiens; experiment: Binding affinity to human partial length FLT3 ITD D835V mutant expressed in mammalian expression system assessed as residual activity at 1 uM by KINOMEscan assay relative to control
[11] = target: T2, Serine/threonine-protein kinase RIO1 (Homo sapiens); experiment: Binding affinity to wild-type human full length RIOK1 (M1 to K568 residues) expressed in bacterial expression system assessed as residual activity at 1 uM by KINOMEscan assay relative to control
[12] = target: T1, Serine/threonine-protein kinase RIO3 (Homo sapiens); experiment: Binding affinity to wild-type human full length RIOK3 (M1 to E519 residues) expressed in bacterial expression system assessed as residual activity at 1 uM by KINOMEscan assay relative to control
[13] = Cmax in Sprague-Dawley rat administered orally; type: ADME; design: route po; details: in vivo, po
MKN-1 [14] = experiment: Antitumor activity against human MKN-1 cells xenografted in CB17-SCID mouse assessed as tumor growth inhibition at 25 mg/kg, ip qd for 18 consecutive days and measured once every 2 days relative to control; type: functional; details: MKN-1, 432 h, time 18 day, read-out: TGI
[15] = test system: T3, Receptor-type tyrosine-protein kinase FLT3 (Homo sapiens), P36888 [D835V]; experiment: Binding affinity to human partial length FLT3 D835V mutant (V592 to Y969 residues) expressed in mammalian expression system assessed as residual activity at 1 uM by KINOMEscan assay relative to control
T3 sequence (whole entry): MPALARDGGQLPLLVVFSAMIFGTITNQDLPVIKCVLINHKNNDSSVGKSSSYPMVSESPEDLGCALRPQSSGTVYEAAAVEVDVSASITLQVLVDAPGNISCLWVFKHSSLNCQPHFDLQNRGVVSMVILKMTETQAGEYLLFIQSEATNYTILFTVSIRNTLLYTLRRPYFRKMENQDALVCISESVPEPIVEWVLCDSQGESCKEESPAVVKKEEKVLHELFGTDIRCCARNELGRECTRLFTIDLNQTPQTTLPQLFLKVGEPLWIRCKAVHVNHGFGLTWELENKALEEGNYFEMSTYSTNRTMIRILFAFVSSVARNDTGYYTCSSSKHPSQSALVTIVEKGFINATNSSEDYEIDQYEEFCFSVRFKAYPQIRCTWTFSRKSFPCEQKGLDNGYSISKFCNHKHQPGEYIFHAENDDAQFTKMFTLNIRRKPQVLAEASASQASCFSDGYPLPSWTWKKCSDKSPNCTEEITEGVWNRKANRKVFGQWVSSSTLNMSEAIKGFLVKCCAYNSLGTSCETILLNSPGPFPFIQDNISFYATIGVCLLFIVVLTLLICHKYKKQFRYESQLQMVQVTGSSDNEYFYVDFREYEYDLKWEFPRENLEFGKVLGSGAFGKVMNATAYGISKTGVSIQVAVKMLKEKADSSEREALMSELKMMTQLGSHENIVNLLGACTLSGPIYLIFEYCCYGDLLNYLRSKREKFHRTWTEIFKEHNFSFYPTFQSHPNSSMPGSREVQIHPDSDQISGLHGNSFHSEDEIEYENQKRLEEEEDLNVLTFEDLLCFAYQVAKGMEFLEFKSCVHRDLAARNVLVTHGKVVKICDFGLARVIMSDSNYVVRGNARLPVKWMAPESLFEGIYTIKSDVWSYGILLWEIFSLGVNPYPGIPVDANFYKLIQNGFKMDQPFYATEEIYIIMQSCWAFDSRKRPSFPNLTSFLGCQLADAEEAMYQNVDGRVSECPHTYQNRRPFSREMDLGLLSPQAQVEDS

IC50 (HT-29) [µM]	IC50 (MKN-1 [1]) [µM]	SMILES	solubility [2]	Activity [3]	solubility [4]	Activity (Homo sapiens [5]) [%]	Activity [6]	Activity [7]	bioavailability [8] [%]	Activity [9]	Activity (Homo sapiens [10]) [%]	Activity [11] [%]	Activity [12] [%]	Cmax [13] [ng/mL]	inhibition in vivo at 25 mg/kg (MKN-1 [14]) [%]	Activity [15] [%]
> 8	> 8	Cc1ccnc(NC(=O)Cc2ccc3ccccc3c2)c1														
> 8	> 8	COc1ccc(-c2ccc3[nH]c(=O)c4nnn(-c5ccccc5)c4c3c2)cn1														

SMILES	IC50 (HT-29) [µM]	IC50 (MKN-1 [1]) [µM]	solubility [2]	Activity [3]	solubility [4]	Activity (Homo sapiens [5]) [%]	Activity [6]	Activity [7]	bioavailability [8] [%]	Activity [9]	Activity (Homo sapiens [10]) [%]	Activity [11] [%]	Activity [12] [%]	Cmax [13] [ng/mL]	inhibition in vivo at 25 mg/kg (MKN-1 [14]) [%]	Activity [15] [%]
COc1ccc(-c2ccc3[nH]c(=O)c4nnn(-c5ccc(N6CCNCC6)c(C(F)(F)F)c5)c4c3c2)cn1	0.38	0.61	Insoluble	Active	Insoluble	3.6	Non-Toxic	Non-Toxic	3.06	Active	4	100	87	13	30.9	28
